Experimental data as given in ChEMBL document CHEMBL3763064, “Discovery of silyl proline containing HCV NS5A inhibitors with pan-genotype activity: SAR development” (Bioorg Med Chem Lett, 2016).

How the values were obtained:
Format in all cases: functional, organism-based, Hepacivirus hominis
[1] = test system: Hepatitis C virus; assay: Antiviral activity against HCV genotype 1a expressing NS5A Y93H mutant by replicon assay; settings: subtype 1a
[2] = test system: Hepatitis C virus; assay: Antiviral activity against HCV genotype 1a by replicon assay; settings: subtype 1a
[3] = test system: Hepatitis C virus; assay: Antiviral activity against HCV genotype 1b by replicon assay
[4] = test system: Hepatitis C virus; assay: Antiviral activity against HCV genotype 3a by replicon assay
[5] = test system: Hepatitis C virus; assay: Antiviral activity against HCV genotype 2a by replicon assay

Structure (SMILES) | EC50 [1] [nM] | EC50 [2] [nM] | EC50 [3] [nM] | EC50 [4] [nM] | EC50 [5] [nM]
COC(=O)N[C@H](C(=O)N1CCS(=O)(=O)C[C@H]1c1ncc(-c2ccc(-c3ccc4c(ccc5nc([C@@H]6C[Si](C)(C)CN6C(=O)[C@@H](NC(=O)OC)C(C)C)[nH]c54)c3)cc2)[nH]1)C(C)C | 380 | 0.2 | 0.01 | – | –
COC(=O)N[C@H](C(=O)N1C[Si](C)(C)C[C@H]1c1nc2ccc3cc(-c4ccc(-c5cnc([C@@H]6CCCN6C(=O)[C@@H](NC(=O)OC)C6CC6)[nH]5)cc4)ccc3c2[nH]1)C(C)C | 260 | 0.08 | – | – | –
COC(=O)N[C@H](C(=O)N1C[Si](C)(C)C[C@H]1c1ncc(-c2ccc(-c3ccc4c(ccc5nc([C@@H]6CCCN6C(=O)[C@@H](NC(=O)OC)C(C)C)[nH]c54)c3)nc2)[nH]1)C(C)C | 185 | 0.04 | 0.014 | – | –
COC(=O)N[C@H](C(=O)N1C[Si](C)(C)C[C@H]1c1ncc(-c2ccc(-c3ccc4c(ccc5nc([C@@H]6CCCN6C(=O)[C@@H](NC(=O)OC)C(C)C)[nH]c54)c3)cc2-c2cccs2)[nH]1)C(C)C | 1150 | 0.5 | – | – | –
CCC(C)[C@H](NC(=O)OC)C(=O)N1C[Si](C)(C)C[C@H]1c1nc2ccc3cc(-c4ccc(-c5cnc([C@@H]6CCCN6C(=O)[C@@H](NC(=O)OC)C(C)C)[nH]5)cc4)ccc3c2[nH]1 (some centres not stated) | 279 | 0.08 | – | – | –
COC(=O)N[C@H](C(=O)N1C[Si](C)(C)C[C@H]1c1ncc(-c2ccc(-c3ccc4c(ccc5nc([C@@H]6CCCN6C(=O)[C@@H](NC(=O)OC)C(C)C)[nH]c54)c3)cc2)[nH]1)C(C)C | 95 | 0.014 | 0.003 | 0.05 | 0.02
COC(=O)N[C@H](C(=O)N1C[Si](C)(C)C[C@H]1c1ncc(-c2ccc(-c3ccc4c(ccc5nc([C@@H]6CCCN6C(=O)[C@@H](NC(=O)OC)C(C)C)[nH]c54)c3)cc2OC)[nH]1)C(C)C | 497 | 0.27 | – | – | –
COC(=O)N[C@H](C(=O)N1C[Si](C)(C)C[C@H]1c1nc2ccc3cc(-c4ccc(-c5cnc([C@@H]6CCCN6C(=O)[C@@H](NC(=O)OC)C(C)OC)[nH]5)cc4)ccc3c2[nH]1)C(C)C (some centres not stated) | 225 | 0.07 | – | – | –
COC(=O)N[C@H](C(=O)N1C[Si](C)(C)C[C@H]1c1ncc(-c2ccc(-c3ccc4c(ccc5nc([C@@H]6C[C@@H](F)CN6C(=O)[C@@H](NC(=O)OC)C(C)C)[nH]c54)c3)cc2)[nH]1)C(C)C | 10 | 0.02 | 0.003 | – | –
COC(=O)N[C@H](C(=O)N1C[Si](C)(C)C[C@H]1c1ncc(-c2ccc(-c3ccc(-c4cnc([C@@H]5C[Si](C)(C)CN5C(=O)[C@@H](NC(=O)OC)C(C)C)[nH]4)cc3)cc2)[nH]1)C(C)C | > 1000 | 0.2 | 0.01 | 4.1 | 0.25
COC(=O)N[C@H](C(=O)N1C[Si](C)(C)C[C@H]1c1ncc(-c2ccc(-c3ccc4c(ccc5nc([C@@H]6CCCN6C(=O)[C@@H](NC(=O)OC)C(C)C)[nH]c54)c3)cc2F)[nH]1)C(C)C | 329 | 0.05 | – | – | –
COC(=O)N[C@H](C(=O)N1C[Si](C)(C)C[C@H]1c1nc2ccc3cc(-c4ccc(-c5cnc([C@@H]6CCCN6C(=O)[C@@H](NC(=O)OC)C6CCCC6)[nH]5)cc4)ccc3c2[nH]1)C(C)C | 590 | 0.2 | – | – | –
COC(=O)N[C@H](C(=O)N1C[Si](C)(C)C[C@H]1c1nc2ccc3cc(-c4ccc(-c5cnc([C@@H]6CCCN6C(=O)[C@@H](NC(=O)OC)C(C)O)[nH]5)cc4)ccc3c2[nH]1)C(C)C (some centres not stated) | 579 | 0.14 | – | – | –
COC(=O)N[C@H](C(=O)N1CC(C)(C)C[C@H]1c1ncc(-c2ccc(-c3ccc4c(ccc5nc([C@@H]6C[Si](C)(C)CN6C(=O)[C@@H](NC(=O)OC)C(C)C)[nH]c54)c3)cc2)[nH]1)C(C)C | 90 | 0.015 | 0.003 | – | –
COC(=O)N[C@H](C(=O)N1CCC[C@H]1c1ncc(-c2ccc(-c3ccc(-c4cnc([C@@H]5C[Si](C)(C)CN5C(=O)[C@@H](NC(=O)OC)C(C)C)[nH]4)cc3)cc2)[nH]1)C(C)C | 92 | 0.04 | 0.003 | 0.5 | 0.04
COC(=O)N[C@H](C(=O)N1CCC(F)(F)C[C@H]1c1ncc(-c2ccc(-c3ccc4c(ccc5nc([C@@H]6C[Si](C)(C)CN6C(=O)[C@@H](NC(=O)OC)C(C)C)[nH]c54)c3)cc2)[nH]1)C(C)C | 728 | 0.1 | – | – | –

Structure (SMILES) | EC50 [1] [nM] | EC50 [2] [nM] | EC50 [3] [nM] | EC50 [4] [nM] | EC50 [5] [nM]
COC(=O)N[C@H](C(=O)N1C[Si](C)(C)C[C@H]1c1ncc(-c2ccc(-c3ccc4c(ccc5nc([C@@H]6CCCN6C(=O)[C@@H](NC(=O)OC)C(C)C)[nH]c54)c3)cc2C2CC2)[nH]1)C(C)C | 1600 | 0.43 | – | – | –
COC(=O)N[C@H](C(=O)N1C[Si]2(CCCC2)C[C@H]1c1ncc(-c2ccc(-c3ccc4c(ccc5nc([C@@H]6CCCN6C(=O)[C@@H](NC(=O)OC)C(C)C)[nH]c54)c3)cc2)[nH]1)C(C)C | 350 | 0.06 | – | 0.2 | 0.01
COC(=O)N[C@H](C(=O)N1C[C@H](F)C[C@H]1c1ncc(-c2ccc(-c3ccc4c(ccc5nc([C@@H]6C[Si](C)(C)CN6C(=O)[C@@H](NC(=O)OC)C(C)C)[nH]c54)c3)cc2)[nH]1)C(C)C | 27 | 0.07 | 0.006 | – | –
COC(=O)N[C@H](C(=O)N1C[Si](C)(C)C[C@H]1c1ncc(-c2ccc(-c3cc4c(ccc5nc([C@@H]6CCCN6C(=O)[C@@H](NC(=O)OC)C(C)C)[nH]c54)s3)cc2)[nH]1)C(C)C | 2330 | > 1 | 0.006 | – | –
COC(=O)N[C@H](C(=O)N1C[Si](C)(C)C[C@H]1c1ncc(-c2ccc(-c3ccc4c(ccc5nc([C@@H]6CCCN6C(=O)[C@@H](NC(=O)OC)C(C)C)[nH]c54)c3)s2)[nH]1)C(C)C | 921 | 0.14 | 0.004 | – | –
COC(=O)N[C@H](C(=O)N1C[Si](C)(C)C[C@H]1c1ncc(-c2ccc(-c3ccc4nc([C@@H]5CCCN5C(=O)[C@@H](NC(=O)OC)C(C)C)[nH]c4c3)cc2)[nH]1)C(C)C | 9920 | > 1 | 0.004 | – | –
CCC(C)[C@H](NC(=O)OC)C(=O)N1CCC[C@H]1c1ncc(-c2ccc(-c3ccc4c(ccc5nc([C@@H]6C[Si](C)(C)CN6C(=O)[C@@H](NC(=O)OC)C(C)C)[nH]c54)c3)cc2)[nH]1 (some centres not stated) | 640 | 0.15 | – | – | –
COC(=O)N[C@H](C(=O)N1CCC[C@H]1c1ncc(-c2ccc(-c3ccc4c(ccc5nc([C@@H]6C[Si](C)(C)CN6C(=O)[C@@H](NC(=O)OC)C6CC6)[nH]c54)c3)cc2)[nH]1)C(C)C | 87 | 0.05 | – | – | –
COC(=O)N[C@H](C(=O)N1C[Si](C)(C)C[C@H]1c1nc2ccc3cc(-c4ccc(-c5cnc([C@@H]6[C@@H]7C[C@@H](C(F)C7F)N6C(=O)[C@@H](NC(=O)OC)C(C)C)[nH]5)cc4)ccc3c2[nH]1)C(C)C (some centres not stated) | 204 | 0.04 | 0.002 | – | –
COC(=O)N[C@H](C(=O)N1C[Si](C)(C)C[C@H]1c1nc2ccc3cc(-c4ccc(-c5cnc([C@@H]6C[C@H]7C[C@H]7N6C(=O)[C@@H](NC(=O)OC)C(C)C)[nH]5)cc4)ccc3c2[nH]1)C(C)C | 30 | – | – | – | –
COC(=O)N[C@H](C(=O)N1CCC[C@H]1c1ncc(-c2ccc(-c3ccc4c(ccc5nc([C@@H]6C[Si](C)(C)CN6C(=O)[C@@H](NC(=O)OC)C(C)O)[nH]c54)c3)cc2)[nH]1)C(C)C (some centres not stated) | > 1000 | 0.6 | – | – | –
COC(=O)N[C@H](C(=O)N1CCC[C@H]1c1ncc(-c2ccc(-c3ccc4c(ccc5nc([C@@H]6C[Si](C)(C)CN6C(=O)[C@@H](NC(=O)OC)C(C)OC)[nH]c54)c3)cc2)[nH]1)C(C)C (some centres not stated) | 275 | 0.03 | – | – | –
COC(=O)N[C@H](C(=O)N1C[C@H](O)C[C@H]1c1ncc(-c2ccc(-c3ccc4c(ccc5nc([C@@H]6C[Si](C)(C)CN6C(=O)[C@@H](NC(=O)OC)C(C)C)[nH]c54)c3)cc2)[nH]1)C(C)C | 44 | 0.06 | 0.005 | – | –
COC(=O)N[C@H](C(=O)N1CCC[C@H]1c1ncc(-c2ccc(-c3ccc4c(ccc5nc([C@@H]6C[Si](C)(C)CN6C(=O)[C@@H](NC(=O)OC)C6CCCC6)[nH]c54)c3)cc2)[nH]1)C(C)C | 471 | 0.09 | – | – | –
COC(=O)N[C@H](C(=O)N1CCC[C@H]1c1ncc(-c2ccc(-c3ccc(-c4cnc([C@@H]5CCCN5C(=O)[C@@H](NC(=O)OC)C(C)C)[nH]4)cc3)cc2)[nH]1)C(C)C | 198 | – | 0.01 | 0.7 | 0.04
COC(=O)N[C@H](C(=O)N1C[Si](C)(C)C[C@H]1c1nc2ccc3cc(-c4ccc(-c5cnc([C@@H]6[C@H]7CC[C@H](C7)N6C(=O)[C@@H](NC(=O)OC)C(C)C)[nH]5)cc4)ccc3c2[nH]1)C(C)C | 131 | 0.09 | 0.01 | – | –
